According to publication PMC5014320, “Screen of Non-annotated Small Secreted Proteins of Pseudomonas syringae Reveals a Virulence Factor That Inhibits Tomato Immune Proteases” (PLoS Pathogens, 2016):
Counter-ions that a name gives are not always drawn.

Experiments:
papain [1] = target: T1, papain (Carica papaya, UniProt P00784); assay: chromogenic protease assay, Lineweaver-Burk; format: biochemical; conditions: pH 6.8, 1 mM glutathione, 37 °C, 0.1-5 mM BAPNA
T1 construct: commercial purified papain (Sigma-Aldrich)
T1 sequence (P00784 134-345): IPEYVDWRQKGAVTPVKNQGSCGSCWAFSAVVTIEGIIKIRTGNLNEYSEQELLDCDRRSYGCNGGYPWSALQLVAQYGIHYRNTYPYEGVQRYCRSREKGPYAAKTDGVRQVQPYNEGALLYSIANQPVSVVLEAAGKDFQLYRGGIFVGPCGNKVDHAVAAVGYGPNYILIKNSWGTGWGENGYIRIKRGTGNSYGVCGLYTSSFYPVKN

papain [2] = target: papain (UniProt P00784); assay: enzyme inhibition kinetics (Lineweaver-Burk)

## N=C(N)NCCC[C@H](NC(=O)c1ccccc1)C(=O)Nc1ccc([N+](=O)[O-])cc1 [BAPNA, Nα-Benzoyl-L-arginine 4-nitroanilide hydrochloride]
Papain [1]
  chromogenic protease assay, Lineweaver-Burk: classical protease inhibition assays on purified papain using the chromogenic substrate BAPNA

## C14-inhibiting protein-1 (Cip1), wild type (natural protein)
Papain [2]
  Ki: 3.98 nM
